Results: patent US5840740A, “Aminosterol compounds and a method of treating infection using the aminosterol compounds” (priority 1995, dated 1998)
Counter-ions that a name gives are not always drawn.

Tests used:
[1] = system: chick embryo vitelline capillaries; experiment: Chick embryo vitelline capillary regression assay; assay type: in vivo; design: key to vascular reactivity (capillary regression): +: Vascular reactivity; 0: No vascular reactivity; +/-: Equivocal reactivity; conditions: for Chick embryo diss. assay, Minimum Effective Concentration: Table II; for vascular reactivity (capillary regression): 60 min; for effect on chick embryo vessels / blood: in words
Protocol: Using the chick embryo vitelline capillaries assay, compounds were tested for their ability to induce capillary regression. Each compound was applied in 0.1 ml of 15% Ficol 400 and PBS onto the embryo, and vascular regression was assessed after 60 minutes.
The 3-day chick embryo consists of an embryonic disc from which numerous vessels emerge and return, forming a "figure 8"-shaped structure--the embryo in the center with vascular loops extending outward over both poles. […] Following a lag period of around 15 minutes, the constriction of continuity between capillary and secondary vessels, generally on the "avenous" side, was observed. Continued pulsatile blood flow progressed, resulting in a "swelling" of the blind tube, followed by a pinching off of the remaining connection and formation of an enclosed vascular sac resembling a "blood island." This process progressed until only the largest vessels remained intact.

Xenopus tadpole = conditions: stage 59-60, 10 μg/ml; in words

Compound	Chick embryo diss. assay, Minimum Effective Concentration [1] [µg]	pharmacological response in tadpole (Xenopus tadpole)	vascular reactivity (capillary regression) ([1]; 1 μg applied)	also measured
C[C@H](CCC(=O)O)[C@H]1CC[C@H]2[C@@H]3C[C@@H](O)[C@H]4C[C@@H](NCCN)CC[C@]4(C)[C@H]3CC[C@]12C [Compound 433]	1	functionally similar to compound 1437		
COC(=O)CC[C@@H](C)[C@H]1CC[C@H]2[C@@H]3[C@H](O)C[C@@H]4C[C@H](NCCN)CC[C@]4(C)[C@H]3CC[C@]12C [Compound 410]	0.01	functionally similar to compound 1437	+	vascular reactivity (capillary regression) ([1]; 0.001 μg applied): 0; vascular reactivity (capillary regression) ([1]; 0.01 μg applied): +/-; vascular reactivity (capillary regression) ([1]; 0.1 μg applied): +/-
CC(C)CCC[C@@H](C)[C@H]1CC[C@H]2[C@@H]3[C@H](O)C[C@H]4C[C@H](N)CC[C@]4(C)[C@H]3CC[C@]12C [Compound 1363]		pharmacologic activity similar to Fraction 1		
COC(=O)CC[C@@H](C)[C@H]1CC[C@H]2[C@@H]3C[C@@H](O)[C@H]4C[C@@H](NCCN)CC[C@]4(C)[C@H]3CC[C@]12C [Compound 432]	> 1	functionally similar to compound 1437		
COC(=O)CC[C@@H](C)[C@H]1CC[C@H]2[C@@H]3C[C@@H](O)[C@H]4C[C@@H](NCCCNCCCCNCCCN)CC[C@]4(C)[C@H]3CC[C@]12C [Compound 466]	1	pharmacologic activity similar to that seen for FX 3		
COC(=O)CC[C@@H](C)[C@H]1CC[C@H]2[C@@H]3CC[C@H]4C[C@@H](NCCCNCCCCNCCCN)CC[C@]4(C)[C@H]3CC[C@]12C [Compound 459]	> 1	pharmacologic activity similar to that seen for FX 3		
CC(C)CCC[C@@H](C)[C@H]1CC[C@H]2[C@@H]3CC[C@H]4C[C@@H](NCCCNCCCCN)CC[C@]4(C)[C@H]3CC[C@]12C [Compound 303]	> 10		0	
CC(COS(=O)(=O)O)C(=O)CC[C@@H](C)[C@H]1CC[C@H]2[C@@H]3[C@H](O)C[C@H]4C[C@@H](NCCCNCCCCN)CC[C@]4(C)[C@H]3CC[C@]12C (single isomer, unassigned) [Compound 1360]	> 10	Swelling and lysis of certain erythrocytes occurred, resulting in accumulation of nuclei within certain small vessels of the tail. Subsequent tissue breakdown occurred in areas of tail surrounding these nuclear plugs.	0	effect on chick embryo vessels / blood [1]: Within 20 minutes, the blood circulating through the embryonic vessels exhibited a brighter red color
COC(=O)CC[C@@H](C)[C@H]1CC[C@H]2[C@@H]3[C@H](O)C[C@H]4C[C@H](NCCCNCCCCN)CC[C@]4(C)[C@H]3CC[C@]12C [Compound 394]	> 10			
C[C@H](CCC(=O)O)[C@H]1CC[C@H]2[C@@H]3[C@H](O)C[C@@H]4C[C@H](NCCCNCCCCNCCCN)CC[C@]4(C)[C@H]3CC[C@]12C [Compound 412]	1	pharmacologic activity similar to that seen for FX 3	+	vascular reactivity (capillary regression) ([1]; 0.001 μg applied): 0; vascular reactivity (capillary regression) ([1]; 0.01 μg applied): 0; vascular reactivity (capillary regression) ([1]; 0.1 μg applied): 0
C[C@H](CCC(=O)O)[C@H]1CC[C@H]2[C@@H]3[C@H](O)C[C@H]4C[C@@H](NCCCNCCCCNCCCN)CC[C@]4(C)[C@H]3CC[C@]12C [Compound 397]	1			
C[C@H](CCC(=O)O)[C@H]1CC[C@H]2[C@@H]3CC[C@@H]4C[C@H](NCCN)CC[C@]4(C)[C@H]3C[C@H](O)[C@]12C [Compound 417]	> 1			
COC(=O)CC[C@@H](C)[C@H]1CC[C@H]2[C@@H]3C[C@@H](O)[C@H]4C[C@H](NCCCNCCCCNCCCN)CC[C@]4(C)[C@H]3CC[C@]12C [Compound 465]		pharmacologic activity similar to that seen for FX 3		
C[C@H](CCC(=O)O)[C@H]1CC[C@H]2[C@@H]3[C@H](O)C[C@@H]4C[C@@H](NCCCNCCCCNCCCN)CC[C@]4(C)[C@H]3CC[C@]12C [Compound 413]	> 1	effects like those produced by compound 1436	0	
CC(C)CCC[C@@H](C)[C@H]1CC[C@H]2[C@@H]3CC[C@H]4C[C@H](NCCCNCCCCNCCCN)CC[C@]4(C)[C@H]3CC[C@]12C [Compound 354]	> 10			
C[C@H](CCC(=O)O)[C@H]1CC[C@H]2[C@@H]3[C@H](O)C[C@@H]4C[C@@H](NCCN)CC[C@]4(C)[C@H]3CC[C@]12C [Compound 415]	> 1		+	vascular reactivity (capillary regression) ([1]; 0.001 μg applied): 0; vascular reactivity (capillary regression) ([1]; 0.01 μg applied): +; vascular reactivity (capillary regression) ([1]; 0.1 μg applied): +; effect on chick embryo vessels / blood [1]: especially active
C[C@H](CCCOS(=O)(=O)O)[C@H]1CC[C@H]2[C@@H]3CC[C@H]4C[C@@H](NCCCNCCCCN)CC[C@]4(C)[C@H]3CC[C@]12C [Compound 399, 3β-N-1-{N[3-(4-Aminobutyl)]-1,3-diaminopropane}-24-hydroxy-5α-cholane 24-potassium sulfate]	> 10			
CC(C)CCC[C@@H](C)[C@H]1CC[C@H]2[C@@H]3[C@H](O)C[C@H]4C[C@@H](NCCCNCCCCN)CC[C@]4(C)[C@H]3CC[C@]12C [Compound 371]	1 to 10	effects like those produced by compound 1436	+/-	vascular reactivity (capillary regression) ([1]; 0.001 μg applied): 0; vascular reactivity (capillary regression) ([1]; 0.01 μg applied): 0; vascular reactivity (capillary regression) ([1]; 0.1 μg applied): 0; vascular reactivity (capillary regression) ([1]; 10 μg applied): +
COC(=O)CC[C@@H](C)[C@H]1CC[C@H]2[C@@H]3CC[C@@H]4C[C@H](NCCN)CC[C@]4(C)[C@H]3C[C@H](O)[C@]12C [Compound 416]	> 1	functionally similar to compound 1437		
COC(=O)CC[C@@H](C)[C@H]1CC[C@H]2[C@@H]3[C@H](O)C[C@@H]4C[C@@H](NCCCNCCCCNCCCN)CC[C@]4(C)[C@H]3CC[C@]12C [Compound 411]	> 1		+/-	
COC(=O)CC[C@@H](C)[C@H]1CC[C@H]2[C@@H]3[C@H](O)C[C@H]4C[C@H](NCCCNCCCCNCCCN)CC[C@]4(C)[C@H]3CC[C@]12C [Compound 395]	> 10			
COC(=O)CC[C@@H](C)[C@H]1CC[C@H]2[C@@H]3CC[C@@H]4C[C@H](NCCCNCCCCNCCCN)CC[C@]4(C)[C@H]3C[C@H](O)[C@]12C [Compound 448]	1			
C[C@H](CCC(=O)O)[C@H]1CC[C@H]2[C@@H]3[C@H](O)C[C@H]4C[C@@H](NCCCNCCCCN)CC[C@]4(C)[C@H]3CC[C@]12C [Compound 381]	> 10		0	
C[C@H](CCC(=O)O)[C@H]1CC[C@H]2[C@@H]3CC[C@H]4C[C@H](NCCCNCCCCN)CC[C@]4(C)[C@H]3CC[C@]12C [Compound 318]	> 10		0	
C[C@H](CCC(=O)O)[C@H]1CC[C@H]2[C@@H]3[C@H](O)C[C@@H]4C[C@H](NCCN)CC[C@]4(C)[C@H]3CC[C@]12C [Compound 414]	> 1	pharmacologic activity similar to Fraction 1	0	
C[C@H](CCC(=O)O)[C@H]1CC[C@H]2[C@@H]3CC[C@@H]4C[C@H](NCCCNCCCCNCCCN)CC[C@]4(C)[C@H]3C[C@H](O)[C@]12C [Compound 449]	> 1			
CC(C)CCC[C@@H](C)[C@H]1CC[C@H]2[C@@H]3[C@H](O)C[C@H]4C[C@@H](N)CC[C@]4(C)[C@H]3CC[C@]12C [Compound 1364]			+	vascular reactivity (capillary regression) ([1]; 0.001 μg applied): 0; vascular reactivity (capillary regression) ([1]; 0.01 μg applied): 0; vascular reactivity (capillary regression) ([1]; 0.1 μg applied): 0; vascular reactivity (capillary regression) ([1]; 10 μg applied): +
CC(C)CCC[C@@H](C)[C@H]1CC[C@H]2[C@@H]3CC[C@H]4C[C@H](NCCCN5CCCCN=C5N)CC[C@]4(C)[C@H]3CC[C@]12C [Compound 393]	> 10			
C[C@H](CCC(=O)O)[C@H]1CC[C@H]2[C@@H]3[C@H](O)C[C@H]4C[C@H](NCCCNCCCCN)CC[C@]4(C)[C@H]3CC[C@]12C [Compound 382]	0.01		+	vascular reactivity (capillary regression) ([1]; 0.001 μg applied): 0; vascular reactivity (capillary regression) ([1]; 0.01 μg applied): 0; vascular reactivity (capillary regression) ([1]; 0.1 μg applied): 0; vascular reactivity (capillary regression) ([1]; 10 μg applied): +
COC(=O)CC[C@@H](C)[C@H]1CC[C@H]2[C@@H]3[C@H](O)C[C@H]4C[C@@H](NCCCNCCCCNCCCN)CC[C@]4(C)[C@H]3CC[C@]12C [Compound 396]	10		+	vascular reactivity (capillary regression) ([1]; 0.001 μg applied): 0; vascular reactivity (capillary regression) ([1]; 0.01 μg applied): 0; vascular reactivity (capillary regression) ([1]; 0.1 μg applied): 0
